# From patent US20100144736A1, “NOVEL BIPHENYL THIO-UREA DERIVATIVES USEFUL AS POTASSIUM CHANNEL MODULATORS” (NeuroSearch A/S, priority 2006, published 2010)
# Biological target: T1, BK channels heterologously expressed in Xenopus laevis oocytes (Homo sapiens, UniProt Q12791)
# T1 construct: expressed in transfected cells; host or cells: Xenopus laevis oocytes
# Experiment: BK channel opening activity, two-electrode voltage clamp in Xenopus laevis oocytes
# Format: cell-based
# Settings: Compound added in increasing concentrations, 1, 3 and 10 μM; step from −40 mV to +30 mV; FIG. 1
# Method: The electrical current through the BK channel is measured conventional two-electrode voltage clamp. BK current is activated by repeated step protocols. In brief, this protocol goes from a resting membrane potential of −40 mV lasting for 5 s to a depolarised step to +30 mV lasting for 1 s. The protocol was repeated continuously.
# Having reached a stable current level, Compound 1 was added in increasing concentrations. Between each application compound was washed out until baseline current activity was obtained.
# T1 sequence (Q12791 whole entry): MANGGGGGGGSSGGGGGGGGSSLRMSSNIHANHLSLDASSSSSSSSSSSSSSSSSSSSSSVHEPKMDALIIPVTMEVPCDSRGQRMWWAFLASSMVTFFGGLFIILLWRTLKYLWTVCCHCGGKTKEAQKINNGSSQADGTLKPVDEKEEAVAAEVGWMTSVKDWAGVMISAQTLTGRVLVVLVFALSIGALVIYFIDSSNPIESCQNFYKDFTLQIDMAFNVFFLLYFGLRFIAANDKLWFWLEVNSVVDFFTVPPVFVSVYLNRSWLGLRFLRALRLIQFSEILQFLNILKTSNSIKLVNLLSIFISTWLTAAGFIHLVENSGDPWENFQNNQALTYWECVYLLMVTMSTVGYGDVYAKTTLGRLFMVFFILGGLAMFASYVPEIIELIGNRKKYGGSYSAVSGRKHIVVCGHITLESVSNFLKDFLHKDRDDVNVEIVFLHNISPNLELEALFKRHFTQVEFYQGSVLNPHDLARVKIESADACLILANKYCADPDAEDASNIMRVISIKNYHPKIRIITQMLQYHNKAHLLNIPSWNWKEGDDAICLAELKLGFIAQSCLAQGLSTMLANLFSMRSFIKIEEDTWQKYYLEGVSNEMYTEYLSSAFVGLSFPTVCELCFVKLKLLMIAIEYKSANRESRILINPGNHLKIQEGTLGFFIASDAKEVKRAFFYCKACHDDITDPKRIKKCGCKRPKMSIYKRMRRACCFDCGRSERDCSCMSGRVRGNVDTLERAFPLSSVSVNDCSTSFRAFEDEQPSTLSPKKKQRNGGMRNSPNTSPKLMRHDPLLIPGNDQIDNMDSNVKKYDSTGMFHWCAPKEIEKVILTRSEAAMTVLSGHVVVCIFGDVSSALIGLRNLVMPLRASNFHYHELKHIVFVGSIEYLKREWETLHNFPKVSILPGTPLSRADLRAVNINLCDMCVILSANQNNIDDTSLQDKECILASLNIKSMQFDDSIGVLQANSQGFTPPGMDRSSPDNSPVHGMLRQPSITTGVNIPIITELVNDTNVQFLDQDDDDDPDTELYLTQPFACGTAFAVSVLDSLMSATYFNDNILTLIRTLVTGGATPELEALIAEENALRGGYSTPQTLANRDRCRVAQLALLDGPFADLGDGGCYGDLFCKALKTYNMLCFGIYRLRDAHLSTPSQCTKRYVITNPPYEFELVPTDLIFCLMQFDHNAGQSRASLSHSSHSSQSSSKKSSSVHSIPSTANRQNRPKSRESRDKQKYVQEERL
compound,measurement,value
"FC(F)(F)c1cc(NC(=S)Nc2ccc(Br)cc2-c2nnn[nH]2)cc(C(F)(F)F)c1 [Compound 1, 1-(3,5-Bis-trifluoromethyl-phenyl)-3-[4-bromo-2-(1H-tetrazol-5-yl)-phenyl]-thiourea]",current activated by depolarisation (BK current),marked increase
